{"source": "paper PMC4336569", "about": "(European journal of medicinal chemistry, 2014)", "key": {"[1]": {"molecular_target": "T1, hNK1R (Homo sapiens, UniProt P25103)", "T1 sequence (P25103 whole entry)": "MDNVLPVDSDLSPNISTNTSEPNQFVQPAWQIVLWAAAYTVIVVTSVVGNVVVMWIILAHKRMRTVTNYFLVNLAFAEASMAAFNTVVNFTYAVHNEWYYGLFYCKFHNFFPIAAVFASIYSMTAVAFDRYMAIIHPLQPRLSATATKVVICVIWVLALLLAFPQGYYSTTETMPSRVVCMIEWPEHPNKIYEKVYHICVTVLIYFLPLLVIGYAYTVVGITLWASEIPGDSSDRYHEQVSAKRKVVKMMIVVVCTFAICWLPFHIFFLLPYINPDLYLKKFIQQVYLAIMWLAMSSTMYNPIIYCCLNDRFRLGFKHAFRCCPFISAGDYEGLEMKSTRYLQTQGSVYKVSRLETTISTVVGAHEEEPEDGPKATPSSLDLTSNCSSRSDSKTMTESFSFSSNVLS", "experiment": "Functional NK1R assay", "assay_type": "cell-based", "details": "compared to lead compound 4"}, "[2]": {"molecular_target": "T1, hNK1R", "experiment": "hNK1/CHO cell membrane radioligand binding assay"}, "[3]": {"test_system": "MOR", "experiment": "Functional GPI", "assay_type": "biochemical, guinea pig"}, "[4]": {"molecular_target": "DOR (Rattus norvegicus, UniProt P33533)", "sequence (P33533 whole entry)": "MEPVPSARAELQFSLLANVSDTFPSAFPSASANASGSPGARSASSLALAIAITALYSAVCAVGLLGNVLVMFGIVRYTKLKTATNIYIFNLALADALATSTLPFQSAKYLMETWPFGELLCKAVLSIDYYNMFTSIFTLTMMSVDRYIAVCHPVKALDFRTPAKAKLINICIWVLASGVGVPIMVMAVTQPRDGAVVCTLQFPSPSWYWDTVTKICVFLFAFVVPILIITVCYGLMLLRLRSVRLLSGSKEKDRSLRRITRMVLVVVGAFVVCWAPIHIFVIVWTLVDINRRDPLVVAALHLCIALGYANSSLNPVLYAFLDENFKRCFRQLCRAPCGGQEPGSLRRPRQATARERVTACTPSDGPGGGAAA", "experiment": "Opioid receptor binding assay, [3H]DSLET displacement"}, "[5]": {"test_system": "CCI-exposed rats", "experiment": "Tolerance development in neuropathic pain model", "assay_type": "in vivo, rat", "details": "von Frey and cold plate, repeated i.t. 1 nmol"}, "[6]": {"test_system": "CCI-exposed rats", "experiment": "Cross tolerance with morphine in neuropathic pain model", "assay_type": "in vivo, rat", "details": "for cross tolerance with morphine: single dose of morphine 3.5 nmol on day 13 after repeated hybrid 1 nmol i.t."}, "[7]": {"test_system": "naïve rats", "experiment": "Tail-flick test", "details": "for antinociceptive effect in acute pain: 1 nmol i.t.; for toxic effect: 9.5 nmol i.t.; for toxic effect / Response (ED50) with 95% confidence limits, Tail-flick / effect in tail-flick test: naïve rats; for Response (ED50) with 95% confidence limits, Tail-flick: acute pain; for duration of antinociceptive effect: after intrathecal administration, data not shown; for effect in tail-flick test: i.t., 30 min after administration"}, "[8]": {"test_system": "CCI-exposed rats", "experiment": "von Frey test", "details": "for Response (ED50) with 95% confidence limits, von Frey: neuropathic pain"}, "[9]": {"test_system": "CCI-exposed rats", "experiment": "Cold plate test", "details": "for Response (ED50) with 95% confidence limits, Cold plate: neuropathic pain"}, "[10]": {"molecular_target": "MOR (Rattus norvegicus, UniProt P33535)", "sequence (P33535 whole entry)": "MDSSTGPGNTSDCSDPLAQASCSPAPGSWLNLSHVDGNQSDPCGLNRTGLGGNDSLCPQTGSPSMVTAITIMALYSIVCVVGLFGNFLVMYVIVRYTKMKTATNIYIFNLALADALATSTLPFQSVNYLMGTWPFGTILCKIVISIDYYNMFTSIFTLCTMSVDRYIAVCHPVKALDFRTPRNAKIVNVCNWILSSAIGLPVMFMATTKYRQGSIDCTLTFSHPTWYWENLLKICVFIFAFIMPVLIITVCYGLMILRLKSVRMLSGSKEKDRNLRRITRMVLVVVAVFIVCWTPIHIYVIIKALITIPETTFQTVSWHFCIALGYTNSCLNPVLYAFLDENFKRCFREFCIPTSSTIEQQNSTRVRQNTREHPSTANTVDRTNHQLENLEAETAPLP", "experiment": "Opioid receptor binding assay, [3H]DAMGO displacement", "details": "vs 4 (Gly4 replaced by β-Ala)"}, "[11]": {"test_system": "mice", "details": "3.8 μmol/kg i.v., previous study; cited from earlier work"}, "[12]": {"test_system": "mice", "experiment": "Tail-flick test"}, "[13]": {"molecular_target": "DOR (Mus musculus, UniProt P32300)", "sequence (P32300 whole entry)": "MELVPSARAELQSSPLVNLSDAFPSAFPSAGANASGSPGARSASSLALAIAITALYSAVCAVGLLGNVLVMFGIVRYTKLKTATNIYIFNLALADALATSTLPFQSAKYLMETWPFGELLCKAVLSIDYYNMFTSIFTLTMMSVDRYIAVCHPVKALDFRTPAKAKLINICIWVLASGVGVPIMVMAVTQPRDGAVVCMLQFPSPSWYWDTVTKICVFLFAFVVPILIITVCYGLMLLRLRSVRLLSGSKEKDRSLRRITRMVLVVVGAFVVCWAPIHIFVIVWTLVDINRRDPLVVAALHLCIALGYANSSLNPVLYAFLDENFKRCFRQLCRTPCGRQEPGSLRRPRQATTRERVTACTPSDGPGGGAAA", "experiment": "Functional mouse vas deferens", "assay_type": "biochemical", "details": "from 22 to 33, MVD assay"}}, "note": "“Also recorded” adds a separate entry of the source."}
{"smiles": "Cc1cc(O)cc(C)c1C[C@H](N)C(=O)N[C@H](CCCNC(=N)N)C(=O)N[C@H]1Cc2ccccc2CN(CCC(=O)N(C)Cc2ccccc2)C1=O", "note": "[Compound 22, H-Dmt-D-Arg-Aba-β-Ala-NMe-Bn]", "values": [{"measurement": "loss in antagonism potency", "setting": "[1]", "value": 1.5, "unit": "log unit"}, {"measurement": "improvement of NK1R binding affinity", "setting": "[2]; vs 21", "value": "approximately 4 times"}, {"measurement": "improvement of in vitro agonism at MOR", "setting": "[3]; vs 21", "value": 6, "unit": "fold"}, {"measurement": "DOR binding increase", "setting": "[4]; vs 21", "value": 10, "unit": "factor"}, {"measurement": "antinociceptive effect by area under curve", "setting": "[5]", "value": "most potent antinociceptive effect"}, {"measurement": "effect of a single dose in rats rendered tolerant to morphine", "setting": "[6]; 22 1 nmol i.t. after repeated morphine 3.5 nmol", "value": "not effective"}, {"measurement": "cross tolerance with morphine", "setting": "[6]", "value": "cross tolerance"}, {"measurement": "antinociceptive effect in acute pain", "setting": "[7]", "value": 30, "unit": "% MPE"}, {"measurement": "toxic effect", "setting": "[7]", "value": "did not induce a toxic effect"}, {"measurement": "Response (ED50) with 95% confidence limits, Tail-flick", "setting": "[7]", "value": "2.78 (1.80-4.30) nmol i.t."}, {"measurement": "duration of antinociceptive effect", "setting": "[7]", "value": 2, "unit": "h"}, {"measurement": "effect in tail-flick test", "setting": "[7]", "value": "increase the nociceptive threshold"}, {"measurement": "toxic effect", "setting": "[8]; 1 nmol i.t., CCI rats", "value": "not observed"}, {"measurement": "attenuation of allodynia, von Frey", "setting": "[8]; 1 nmol i.t., day 7 after CCI", "value": 80, "unit": "% MPE"}, {"measurement": "toxic signs", "setting": "[8]; i.t., CCI rats, doses up to 11 nmol", "value": "lack of toxic signs"}, {"measurement": "Response (ED50) with 95% confidence limits, von Frey", "setting": "[8]; day 7 after CCI", "value": "0.24 (0.18 - 0.32) nmol i.t."}, {"measurement": "toxicity", "setting": "[9]; 10 nmol i.t., not shown", "value": "lacking toxicity"}, {"measurement": "Response (ED50) with 95% confidence limits, Cold plate", "setting": "[9]; day 7 after CCI", "value": "0.34 (0.25 - 0.46) nmol i.t."}]}
{"smiles": "Cc1cc(O)cc(C)c1C[C@H](N)C(=O)N[C@H](CCCNC(=N)N)C(=O)N[C@H]1Cc2ccccc2CN(CC(N)=O)C1=O", "note": "[Compound 7, H-Dmt-D-Arg-Aba-Gly-NH2]", "values": [{"measurement": "effect in tail-flick test", "setting": "[7]", "value": "increase the nociceptive threshold"}, {"measurement": "toxic effect", "setting": "[8]; 1 nmol i.t., CCI rats", "value": "toxic effect"}]}
{"smiles": "Cc1cc(O)cc(C)c1C[C@H](N)C(=O)N[C@H](CCCNC(=N)N)C(=O)N[C@H]1Cc2ccccc2CN(CC(=O)N(Cc2cc(C(F)(F)F)cc(C(F)(F)F)c2)CC(C)C)C1=O", "note": "[Compound 27, H-Dmt-D-Arg-Aba-Gly-NiBu-3’,5’-(CF3)2-Bn]", "values": [{"measurement": "IC50", "setting": "[3]; read-out: GPI (IC50 nM), representative of MOR activation", "value": 19.7, "unit": "nM"}]}
{"smiles": "Cc1cc(O)cc(C)c1C[C@H](N)C(=O)N[C@H](CCCNC(=N)N)C(=O)N[C@H]1Cc2ccccc2CN(CCC(=O)N(C)Cc2cc(C(F)(F)F)cc(C(F)(F)F)c2)C1=O", "note": "[Compound 21, H-Dmt-D-Arg-Aba-β-Ala-NMe-3’,5’-(CF3)2-Bn]", "values": [{"measurement": "loss in NK1R binding", "setting": "[2]; vs 4", "value": 120, "unit": "fold"}, {"measurement": "improvement of MOR binding", "setting": "[10]", "value": 5, "unit": "fold"}, {"measurement": "improvement of DOR binding", "setting": "[4]; vs 4 (Gly4 replaced by β-Ala)", "value": 5, "unit": "fold"}]}
{"smiles": "Cc1cc(O)cc(C)c1C[C@H](N)C(=O)N[C@H](CCCNC(=N)N)C(=O)N[C@H]1Cc2ccccc2CN(CC(=O)N(C)Cc2cc(C(F)(F)F)cc(C(F)(F)F)c2)C1=O", "note": "[Compound 4, H-Dmt-D-Arg-Aba-Gly-NMe-3’,5’-(CF3)2-Bn]", "values": [{"measurement": "cross tolerance with morphine", "setting": "[6]", "value": "cross tolerance"}, {"measurement": "antinociceptive potency relative to i.p. administered morphine", "setting": "[11]", "value": 3.7, "unit": "times"}, {"measurement": "antinociceptive effect in acute pain", "setting": "[7]", "value": 30, "unit": "% MPE"}, {"measurement": "toxic effect", "setting": "[7]", "value": "seizures and death of animals"}, {"measurement": "Response (ED50) with 95% confidence limits, Tail-flick", "setting": "[7]", "value": "1.66 (1.11-2.51) nmol i.t."}, {"measurement": "effect in tail-flick test", "setting": "[7]", "value": "increase the nociceptive threshold"}, {"measurement": "toxic effect", "setting": "[8]; 1 nmol i.t., CCI rats", "value": "not observed"}, {"measurement": "attenuation of allodynia, von Frey", "setting": "[8]; 1 nmol i.t., day 7 after CCI", "value": 60, "unit": "% MPE"}, {"measurement": "toxic effect", "setting": "[8]; highest investigated dose 9.5 nmol i.t., CCI rats, not shown", "value": "toxic effect"}, {"measurement": "Response (ED50) with 95% confidence limits, von Frey", "setting": "[8]; day 7 after CCI", "value": "1.05 (0.65 - 1.69) nmol i.t."}, {"measurement": "Response (ED50) with 95% confidence limits, Cold plate", "setting": "[9]; day 7 after CCI", "value": "1.14 (0.74 - 1.77) nmol i.t."}]}
{"smiles": "CC(=O)N[C@H]1Cc2ccccc2CN(CC(=O)N(C)Cc2cc(C(F)(F)F)cc(C(F)(F)F)c2)C1=O", "note": "[Compound 6, Ac-Aba-Gly-NMe-3’,5’-(CF3)2-Bn]", "values": [{"measurement": "effect in tail-flick test", "setting": "[7]", "value": "very weak"}, {"measurement": "activity in tail-flick test after i.v. administration", "setting": "[12]; doses up to 1.21 μmol/kg i.v., not shown", "value": "did not show any activity at all; also recorded: not active at all"}, {"measurement": "antiallodynic activity", "setting": "[8]; i.t., day 7 after CCI", "value": "significantly more potent than the opioid parent compounds"}, {"measurement": "effect on hyperalgesia", "setting": "[9]; i.t., day 7 after CCI", "value": "more potent in antagonizing hyperalgesia than hybrid 4 and approximately similar to 22"}]}
{"smiles": "Cc1cc(O)cc(C)c1C[C@H](N)C(=O)N[C@H](CCCNC(=N)N)C(=O)N[C@H]1Cc2ccccc2CN(CCC(N)=O)C1=O", "note": "[Compound 33, H-Dmt-D-Arg-Aba-β-Ala-NH2]", "values": [{"measurement": "shift in DOR potency", "setting": "[13]", "value": 10, "unit": "fold"}, {"measurement": "duration of antinociceptive effect", "setting": "[7]", "value": 2, "unit": "h"}, {"measurement": "effect in tail-flick test", "setting": "[7]", "value": "increase the nociceptive threshold"}, {"measurement": "antinociceptive response", "setting": "[12]; 1.21 μmol/kg i.v., mice", "value": "largely exceeded that of morphine"}, {"measurement": "toxic effect", "setting": "[8]; 1 nmol i.t., CCI rats", "value": "toxic effect"}]}
{"smiles": "Cc1cc(O)cc(C)c1C[C@H](N)C(=O)N[C@H](CCCNC(=N)N)C(=O)N[C@H]1Cc2ccccc2CN(CC(=O)N(Cc2ccccc2)CC(C)C)C1=O", "note": "[Compound 28, H-Dmt-D-Arg-Aba-Gly-NiBu-Bn]", "values": [{"measurement": "GPI agonist character", "setting": "[3]; GPI", "value": "P.A ^e"}]}
